Data on twelve molecules can be found in patent US20100292255A1, “Therapeutic Compounds and Their Use in Treating Diseases and Disorders” (Myriad Pharmaceuticals, Inc., priority 2007, published 2010).

The test deals with T1, purified human Hsp90.
T1 construct: purified human Hsp90 (Stressgen, SPP-770)
The test can be described thus: Hsp90 binding assay: displacement of BODIPY-labeled geldanamycin measured by fluorescence polarization. Particulars: BODIPY-GM 10 nM, Hsp90 30 nM, overnight at room temperature; for IC50: read-out: GM displacement from purified Hsp90 measured by FP IC 50; for GM displacement from purified Hsp90 measured by FP Inhibition by 5 μM compd. (%): 5 μM compound. Summed up: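 Fluorescence polarization measured displacement of BODIPY-geldanamycin (10 nM) from purified human Hsp90 (30 nM). The buffer was HEPES-KOH pH 7.3 with molybdate, NP-40, gamma globulin and DTT, 2% DMSO, overnight at room temperature, ex/em 485/530 nm. % inhibition was calculated against DMSO controls, and points confounded by compound fluorescence were excluded.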

Regarding `NC(=O)C[C@H](N)C(=O)N1CCC(CCn2c(Sc3cc4c(cc3Br)OCCO4)nc3c(N)ncnc32)CC1` [Example Compound 151, (3S)-3-Amino-4-[4-(2-{6-amino-8-[(7-bromo-2,3-dihydro-1,4-benzodioxin-6-yl)thio]-9H-purin-9-yl}ethyl)piperidin-1-yl]-4-oxobutanamide], the IC50 was found to be 0.057 µM.
`CC(=O)NC(CCn1c(Sc2cc3c(cc2Br)OCCO3)nc2c(N)ncnc21)C1CC1` (stereo not drawn) [compound 139, N-(3-{6-Amino-8-[(7-bromo-2,3-dihydro-1,4-benzodioxin-6-yl)thio]-9H-purin-9-yl}-1-cyclopropylpropyl)acetamide]: the IC50 amounted to 0.24 µM.
On the same count and under the same terms, with `CS(=O)(=O)N1CCCCC1CCn1c(Sc2cc3c(cc2C#N)OCO3)nc2c(N)ncnc21` (stereo not drawn) [compound 46, 6-[(6-Amino-9-{2-[1-(methylsulfonyl)piperidin-2-yl]ethyl}-9H-purin-8-yl)thio]-1,3-benzodioxole-5-carbonitrile] the figure was 0.7 µM; with `Nc1ncnc2c1nc(Sc1cc3c(cc1Cl)OCO3)n2CCC1CCN(C(=O)CO)CC1` [Example Compound 205, 2-[4-(2-{6-Amino-8-[(6-chloro-1,3-benzodioxol-5-yl)thio]-9H-purin-9-yl}ethyl)piperidin-1-yl]-2-oxoethanol], 0.497 µM.
Regarding `Nc1ncn(CCC2CCN(C=O)CC2)c2nc(Sc3cc4c(cc3Br)CCC4)nc1-2` [compound 85], the “GM displacement from purified Hsp90 measured by FP Inhibition by 5 μM compd. (%)” value came to 35.0%.
Take `COc1cc(OC)c(Cl)c(Sc2nc3c(N)ncnc3n2CC2CCCN(C(=O)[C@H](C)N)C2)c1` (stereo partly drawn) [compound 123, 9-({1-[(2S)-2-Aminopropanoyl]piperidin-3-yl}methyl)-8-[(2-chloro-3,5-dimethoxyphenyl)thio]-9H-purin-6-amine]: the IC50 turned out to be 3.8 µM.
Consider `CC(C)(C)[C@H](O)C(=O)N1CCC(CCn2c(Sc3cc4c(cc3Br)OCCO4)nc3c(N)ncnc32)CC1` [compound 106, (2S)-1-[4-(2-{6-Amino-8-[(7-bromo-2,3-dihydro-1,4-benzodioxin-6-yl)thio]-9H-purin-9-yl}ethyl)piperidin-1-yl]-3,3-dimethyl-1-oxobutan-2-ol], for which the IC50 was 0.07 µM.
As for `CN1CCOc2cc(Sc3nc4c(N)ncnc4n3CCC3CCN(C=O)CC3)c(Br)cc21` [Example Compound 186, 4-(2-{6-Amino-8-[(6-bromo-4-methyl-3,4-dihydro-2H-1,4-benzoxazin-7-yl)thio]-9H-purin-9-yl}ethyl)piperidine-1-carbaldehyde], the IC50 turned out to be 0.065 µM.
As to `COc1ccc(OC(F)(F)F)c(Sc2nc3c(N)ncn(CCC4CCN(C(=O)CO)CC4)c-3n2)c1` [compound 103, 2-{4-[2-(6-Amino-8-{[5-methoxy-2-(trifluoromethoxy)phenyl]thio}-3H-purin-3-yl)ethyl]piperidin-1-yl}-2-oxoethanol], the “GM displacement from purified Hsp90 measured by FP Inhibition by 5 μM compd. (%)” value was 18.0%.
For `C[C@@H](O)C(=O)N1CCC(CCn2c(Sc3cc4occc4cc3Br)nc3c(N)ncnc32)CC1` [Example Compound 201, (2R)-1-[4-(2-{6-Amino-8-[(5-bromo-1-benzofuran-6-yl)thio]-9H-purin-9-yl}ethyl)piperidin-1-yl]-1-oxopropan-2-ol], the IC50 amounted to 0.2 µM.
Consider `CN1CCOc2cc(Br)c(Sc3nc4c(N)ncnc4n3CCC3CCN(C=O)CC3)cc21` [Example Compound 184, 4-(2-{6-Amino-8-[(7-bromo-4-methyl-3,4-dihydro-2H-1,4-benzoxazin-6-yl)thio]-9H-purin-9-yl}ethyl)piperidine-1-carbaldehyde], for which the IC50 worked out at 0.31 µM.
Turning to `Nc1ncnc2c1nc(Sc1cc3c(cc1Br)OCO3)n2CCC1CCC(F)(F)CC1` [Example Compound 190, 8-[(6-Bromo-1,3-benzodioxol-5-yl)thio]-9-[2-(4,4-difluorocyclohexyl)ethyl]-9H-purin-6-amine], the IC50 amounted to 0.65 µM.
